# Tests used:
# [1] = background, literature and labels; cited from earlier work
# [2] = tested on: HK cleavage; assay: Phase 1 SAD: ex vivo DXS-stimulated HK cleavage, capillary-based immunoassay (Wes); type: in vivo, human
# Method: (§1) PD measurements were determined in dextran sulfate (DXS) stimulated undiluted plasma using a fluorogenic enzyme assay and capillary based HK cleavage immunoassay.
# DXS-stimulated cleavage of HK, in undiluted plasma was quantified by capillary-based immunoassay on the Wes System (ProteinSimple) using monoclonal anti-HK antibody and chemiluminescence-based detection. Plasma kallikrein mediated HK cleavage in undiluted citrated human plasma was induced by contact system activation with DXS (6.25 μg/ml) at 4° C. in selected samples from the SAD phase.
# [3] = Phase 1 single ascending dose study: safety and tolerability; type: in vivo, human; details: phase I trial, healthy males, 5-600 mg oral
# Source text: (§2) This study was a randomized, double-blind, placebo-controlled single ascending dose (SAD) and crossover studies for food effect and capsule/tablet formulations.
# [4] = tested on: HK cleavage by PKa in undiluted plasma; assay: DXS-activated cleavage of HK in undiluted plasma (immunoblot); type: biochemical; details: 300 nM PKa inhibitor, 20 min incubation with DXS
# Method: DXS-activated cleavage of HK in undiluted plasma was performed in the absence or presence of 300 nM PKa inhibitor and quantified by SDS-PAGE gel electrophoresis, using 7.5% Criterion TGX Precast gels (Biorad). Transfer was made onto Immunobilon-FL PVDF membrane. Image analysis was done using the LICOR imaging system. Mouse monoclonal anti-HK antibody (MAB15692, R&D systems) was used for traditional immunoblotting. Data presented as % of HK remaining after 20 min incubation with DXS compared to HK levels in unactivated plasma (Table 1).
# [5] = tested on: HK cleavage by PKa in undiluted citrated human plasma; assay: Protection of HK from PKa-mediated cleavage in DXS-stimulated HAE and control plasma (WES immunoassay); type: biochemical
# Method: High molecular weight kininogen (HK) cleavage in undiluted citrated human plasma was induced by contact system activation with dextran sulfate (DXS, Sigma #31395-10G; 6.25 μg/ml) on wet ice. […] HAE plasma was obtained from HAE subjects (n=6) and C1-inhibitor deficiency was confirmed by western blotting. Protection of HK from PKa mediated cleavage in DXS-stimulated whole undiluted plasma was then determined by two methods; traditional western blotting and a semi-automated capillary-based immunoassay.
# Preparation of samples: Combine one part 5× fluorescent master mix with four parts of the 1:200 plasma sample. Vortex to mix. Heat the samples+fluorescent master mix and the biotinylated ladder at 95° C. for 5 minutes, vortex, and load onto the WES plate. Monoclonal anti-human HK antibody was used for this chemiluminescence-based detection method using the Wes System (ProteinSimple).
# Analysis: Collect the peak area measurement obtained in the Compass software (cbz file) for the full-length HK molecular weight of the respective time-point sample with DXS-induced activation. The peak area is defined as the area calculated for the spectral peak profile for HK. To measure the plasma kallikrein inhibition by the compound, the percent full-length HK detected was calculated.
# [6] = Phase 1 single ascending dose study: plasma pharmacokinetics (LC MS/MS); type: in vivo, human; details: oral capsule, fasted, 5 mg to 600 mg
# Method: as §2
# Samples for pharmacokinetic (PK) and PD assessment were taken at repeated intervals over 48 hours.
# Plasma samples used for PK assessment were analysed using a validated liquid chromatography tandem mass spectrometry (LC MS/MS) method.
# [7] = tested on: plasma prekallikrein (PPK) cleavage; assay: Phase 1 SAD: ex vivo DXS-stimulated cleavage of plasma prekallikrein, Wes immunoassay; type: in vivo, human; details: 600 mg oral capsules, up to 12 hrs post-dose
# Source text: (§3) DXS-stimulated cleavage of plasma prekallikrein and Factor XII (FXII) were quantified by capillary-based immunoassay on the Wes System (ProteinSimple) analogously.
# [8] = tested on: Factor XII (FXII) cleavage / FXIIa generation; assay: Phase 1 SAD: ex vivo DXS-stimulated generation of FXIIa, Wes immunoassay; type: in vivo, human; details: 600 mg oral capsules, up to 12 hrs post-dose
# Source text: as §3
# [9] = Phase 1 multiple dose study: safety, tolerability and ECG; type: in vivo, human; details: 3 x 600 mg every 8, 4 or 2 hours, total 1800 mg, healthy adults
# Method: This is a phase 1, double-blind, placebo-controlled, multiple-dose, multiple-cohort study to evaluate safety and tolerability of the compound as well as of the ECG effects of the compound formulated as 100 mg Film Coated Tablets in healthy adult male and female subjects.
# During the study, oral doses of 600 mg of the compound as Film Coated Tablets (six 100 mg tablets) or 6 matching placebo tablets will be administered once every 8 hours (Cohort 1) every 4 hours (Cohort 2), or every 2 hours (Cohort 3 and 4) to healthy adult male and female subjects up to a total dose of 1800 mg. In Cohorts 1, 2 and 3, 6 subjects will receive the compound as 100 mg Film Coated Tablets and 2 subjects will receive the placebo for a total of 8 subjects per cohort. In Cohort 4, 12 subjects will receive the compound as 100 mg Film Coated Tablets and 6 subjects will receive the placebo for a total of 18 subjects.
# A Holter monitor will be attached to each subject in order to continuously record ECGs. The monitor will be attached 1 hour before the first dose and will remain attached until after the final blood sample collection. The electrodes for the Holter monitor will be checked by a member of the clinic staff at appropriate intervals to ensure they are attached.
# [10] = molecular target: T1, Plasma Kallikrein (Homo sapiens, UniProt P03952); assay: Phase 1 SAD / food effect: ex vivo PKa catalytic activity in DXS-stimulated undiluted plasma
# T1 construct: PD measurements were determined in dextran sulfate (DXS) stimulated undiluted plasma using a fluorogenic enzyme assay; from tissue; host or cells: undiluted plasma of healthy male volunteers after oral dosing, stimulated ex vivo with dextran sulfate
# Method: as §1
# The time until appearance of detectable amidolytic enzyme activity in DXS-stimulated plasma (lag time) was calculated from the catalytic activity assay. The detection sensitivity of the rate of catalytic activity in plasma based on using a Spark (Tecan) fluorimeter is a fluorescence increase to reach 1ΔF unit/sec.
# [11] = Plasma free fraction by Rapid Equilibrium Dialysis; type: in vitro ADME; details: 5 μM in neat human plasma, dialysed 5 hrs at 37° C.
# Method: Plasma free fraction was determined using “Rapid Equilibrium Dialysis” system (Thermo Scientific), test compounds were prepared at 5 μM in neat human plasma and dialysed against phosphate buffer for 5 hrs at 37° C. Quantification of the compound partitioned in two chambers of the dialysis device was performed via LCMS/MS. Fraction of compound unbound to plasma proteins presented as % of total.
# [12] = Phase 2 study Part 1: pharmacokinetics in HAE patients; type: in vivo; details: human, plasma, 600 mg single oral dose, n = 27, preliminary, read-out: Cmax Mean (95% CI)
# Method: In Part 1, subjects will receive a single oral dose of 600 mg of the compound to investigate the safety, PK and PD of the compound during the intercritical period between HAE attacks.
# Part 1: Blood samples for PK and PD measurements will be collected at the following timepoints: Pre-dose (0 h), 15 min, 30 min, 45 min, 1 h, 1.5 h, 2 h, 3 h, and 4 h post-dose. Vital signs (systolic blood pressure [SBP], diastolic blood pressure [DBP], pulse rate [PR], respiratory rate [RR] and body temperature) will be measured at pre-dose (0 h), 1 h, and 4 h post-dose. Samples for post-treatment safety laboratory assessments will be taken with the 4 h PK/PD samples.
# Non-compartmental PK parameters will include maximum concentration in plasma (Cmax), time to reach Cmax in plasma (tmax), and area under the curve from time 0 to last sample (AUC0-t). Compartmental PK modelling will describe the PK of the compound and generate underlying Cmax, tmax, AUC, apparent clearance (CL/F), apparent volume of distribution (Vd/F) and estimated terminal elimination half-life (t½).
# The PK parameters of the compound will be determined from the individual concentration versus time data using Phoenix WinNonlin. In case of a deviation from the theoretical time, the actual time of blood sample will be used in the calculation of the derived PK parameters. […]
# [13] = molecular target: purified PKa (Homo sapiens, UniProt P03952); assay: Rate of formation of the enzyme-inhibitor complex (Kon); type: biochemical
# Method: The rate of formation of the enzyme-inhibitor complex (Kon) was determined using purified PKa rapidly mixed with a solution containing fluorogenic substrate and a concentration range of inhibitor. The time-dependent establishment of inhibition was then used to calculate the rate of formation of the enzyme-inhibitor complex for each concentration of inhibitor. The Kon was calculated by plotting the rate of inhibition versus the inhibitor concentration. Data in Table 1 are presented in μM^−1 sec^−1.
# [14] = molecular target: PKa in DXS-activated plasma (Homo sapiens, UniProt P03952); assay: Catalytic activity of PKa in dextran sulfate-activated plasma (inhibitor added before DXS); type: biochemical; details: read-out: IC50 plasma enzyme
# Method: Catalytic activity of PKa in dextran sulfate-activated (DXS, Sigma; 10 μg/ml) plasma (1:4 diluted or undiluted, VisuCon-F control plasma, Affinity Biologicals Inc) was determined by the time-dependent hydrolysis of fluorogenic substrate.
# [15] = molecular target: T2, Human plasma kallikrein (Protogen) (Homo sapiens, UniProt P03952); assay: Plasma kallikrein inhibitory activity in vitro (purified enzyme, fluorogenic substrate); type: biochemical; details: 25° C., substrate H-DPro-Phe-Arg-AFC
# T2 construct: purchased Protogen
# Method: Human plasma kallikrein (Protogen) was incubated at 25° C. with the fluorogenic substrate H-DPro-Phe-Arg-AFC and various concentrations of the test compound. Residual enzyme activity (initial rate of reaction) was determined by measuring the change in […] at 410 nm and the IC50 value for the test compound was determined.
# [16] = molecular target: T3, plasma kallikrein in pre-activated undiluted human plasma (Homo sapiens, UniProt P03952); assay: Inhibition of enzyme activity of pre-activated undiluted plasma (compound added after DXS); type: biochemical; details: added 3.5 minutes post DXS; compound 300, 1000, 3000 nM; C1-INH 3000 nM (FIG. 3B)
# T3 construct: from tissue
# Method: The ability of the compound to inhibit the enzyme activity of pre-activated plasma was assessed by addition of the compound after DXS stimulation. Aliquots of plasma (20 μL) were mixed with a 2.5 μL solution containing […] fluorogenic substrate (H-DPro-Phe-Arg-AFC) and a 2.5 μL solution of dextran sulphate (DXS; 100 μg/mL) which acted as an activator of the plasma kallikrein-kinin pathway. Enzyme activity was immediately measured by monitoring the accumulation of fluorescence liberated from the substrate by substrate cleavage over 16 minutes. At 3.5 minutes post DXS addition 5 μl of inhibitors or water control are were added into each well. The compound was tested at concentrations of 300, 1000 and 3000 nM. C1-INH at a concentration of 3000 nM and vehicle controls were also included.
# T1 sequence (P03952 391-638 limits assumed): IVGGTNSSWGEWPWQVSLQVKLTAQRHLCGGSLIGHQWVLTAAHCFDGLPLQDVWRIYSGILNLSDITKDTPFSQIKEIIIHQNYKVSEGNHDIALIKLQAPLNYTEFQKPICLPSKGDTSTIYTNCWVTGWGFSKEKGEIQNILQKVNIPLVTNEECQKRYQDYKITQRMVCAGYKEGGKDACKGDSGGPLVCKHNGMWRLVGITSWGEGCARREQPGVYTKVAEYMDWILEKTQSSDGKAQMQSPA
# T1 sequence (P03952 20-390 partner limits assumed): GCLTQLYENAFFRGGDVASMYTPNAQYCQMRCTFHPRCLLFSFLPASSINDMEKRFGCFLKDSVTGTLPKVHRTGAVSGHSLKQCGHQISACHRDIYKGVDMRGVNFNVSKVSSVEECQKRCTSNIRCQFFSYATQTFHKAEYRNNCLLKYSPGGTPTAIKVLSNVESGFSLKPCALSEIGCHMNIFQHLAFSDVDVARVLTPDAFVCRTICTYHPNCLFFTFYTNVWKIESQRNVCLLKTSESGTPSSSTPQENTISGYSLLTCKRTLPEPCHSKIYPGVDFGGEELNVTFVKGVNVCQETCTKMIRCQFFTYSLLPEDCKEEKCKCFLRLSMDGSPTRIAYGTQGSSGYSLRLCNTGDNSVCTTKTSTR
# T2 sequence (P03952 391-638 limits assumed): as the sequence (P03952 391-638 limits assumed) above
# T2 sequence (P03952 20-390 partner limits assumed): as the sequence (P03952 20-390 partner limits assumed) above
# Sequence of purified PKa (P03952 391-638 limits assumed): as the sequence (P03952 391-638 limits assumed) above
# Sequence of purified PKa (P03952 20-390 partner limits assumed): as the sequence (P03952 20-390 partner limits assumed) above
# T3 sequence (P03952 391-638 limits assumed): as the sequence (P03952 391-638 limits assumed) above
# T3 sequence (P03952 20-390 partner limits assumed): as the sequence (P03952 20-390 partner limits assumed) above
# Sequence of PKa in DXS-activated plasma (P03952 391-638 limits assumed): as the sequence (P03952 391-638 limits assumed) above
# Sequence of PKa in DXS-activated plasma (P03952 20-390 partner limits assumed): as the sequence (P03952 20-390 partner limits assumed) above
molecule,measurement,setting,value
"N#Cc1cccc([C@@H](NCC2CC2)c2ccc(F)c(NC(=O)c3cc(C(F)(F)F)nn3-c3cccc(CN)c3)c2)c1 [Berotralstat, reference compound]",reported adverse reactions / risks,[1],more gastrointestinal adverse effects
"COCc1nn(Cc2ccc(Cn3ccccc3=O)cc2)cc1C(=O)NCc1nccc(OC)c1F [compound of Formula A, N-[(3-fluoro-4-methoxypyridin-2-yl)methyl]-3-(methoxymethyl)-1-({4-[(2-oxopyridin-1-yl)methyl]phenyl}methyl)pyrazole-4-carboxamide]",effect on HK cleavage in DXS-activated plasma,"[2]; 600 mg oral capsules, up to 12 hrs post-dose",reduces HK cleavage
same,duration of protection of HK from DXS-activated cleavage in undiluted plasma,[2]; single 600 mg dose,at least 10 hr
same,serious adverse events,[3],No serious adverse events
same,tolerability,[3],no tolerability signals
same,HK protection (% of HK remaining vs unactivated plasma),[4],85%
same,protection against HK cleavage,[5]; HAE plasma stimulated with dextran sulfate,dose dependent protection against HK cleavage
same,protection against HK cleavage,[5]; healthy control plasma stimulated with dextran sulfate,dose dependent protection against HK cleavage
same,plasma exposure,[6],rapid and dose-dependent plasma exposure
same,effect on PPK cleavage in DXS-activated plasma,[7],reduces PPK cleavage
same,effect on generation of FXIIa in DXS-activated plasma,[8],reduces the generation of FXIIa
same,effects on the studied ECG parameters,[9],No clinically relevant effects
same,serious adverse events,[9],No serious adverse events
same,severity of reported adverse events,[9],mild
same,lag time (time until appearance of catalytic activity during contact system activation),"[10]; 600 mg dose, tablet formulation",increases the time until appearance of catalytic activity
same,food effect on the pharmacodynamic (PD) profile,"[10]; 600 mg tablet, fed vs fasted",no significant food-effect
same,"fraction unbound at 5 h, 5 μM",[11],0.25
same,Cmax,[12],5910 ng/mL
"C1-INH: C1 inhibitor (Sigma Cat #E0518), used as a therapeutic benchmark for HAE [Compound C1-INH]",Kon,[13],40000 M⁻¹ s⁻¹
same,IC50,[14],1700 nM
same,IC50,[15],50 nM
same,inhibition of enzyme activity after activation of plasma,[16],slower action
Ecallantide,reported adverse reactions / risks,[1],risk of anaphylactic reactions
"lanadelumab: recombinant fully human IgG1 kappa light chain monoclonal antibody, active substance of Takhzyro (antibody, chains of the INN, looked up, V domains shown) VH: EVQLLESGGGLVQPGGSLRLSCAASGFTFSHYIMMWVRQAPGKGLEWVSGIYSSGGITVYADSVKGRFTISRDNSKNTLYLQMNSLRAEDTAVYYCAYRRIGVPRRDEFDIWGQGTMVTVSS VL: DIQMTQSPSTLSASVGDRVTITCRASQSISSWLAWYQQKPGKAPKLLIYKASTLESGVPSRFSGSGSGTEFTLTISSLQPDDFATYYCQQYNTYWTFGQGTKVEIK",reported adverse reactions / risks,[1],"hypersensitivity, injection site pain, injection site erythema, and injection site bruising"
